From patent US20240398835A1, “METHODS FOR TREATING CONGENITAL DISORDERS OF GLYCOSYLATION” (priority 2023, published 2024) come the findings set out here.

Holding throughout (assay type): in vivo
For assay [1], the system named is R318W PM 1 (R318W Human / R298W C. elegans point mutation). In words: C. elegans model growth assay (worm body area), R318W PM 1 line. As for the experimental part:
(§1) Five lines of GMPPA disorder models were generated in C. elegans using CRISPR/Cas9 gene editing: • One line GMPPA Human (Y47DA9.1 C. elegans) knockout (GMPPA KO) • Two lines T292P Human (S272P C. elegans) point mutation (T292P PM1, T292P PM2) • Two lines R318W Human (R298W C. elegans) point mutation (R318W PM1, R318W PM2)
(§2) These animals were tested for growth delays, temperature sensitivity, and mitotic stress sensitivity, with the dual goals of validating C. elegans as a model for studying GMPPA-CDG and identifying a robust phenotype that could be leveraged in future screening of novel pharmaceuticals for the treatment of the deleterious effects of this mutation.
(§3) To assess the effect of Compounds 1-6 on mitigating the growth deficit of C. elegans carrying a mutation in the GMPPA gene, the growth of the five mutant GMPPA C. elegans lines that were either untreated or treated with one of 6 different drugs (Compounds 1-6), at different concentrations, was measured. C. elegans were allowed to develop to the LI larval stage in the liquid solution. LI C. elegans were then placed onto plates seeded with inactivated OP50 containing the appropriate drug treatment in 0.1% DMSO, and were kept at 20° C. throughout the assay. About thirty 30 C. elegans synchronized at the LI stage of each genotype were placed onto 3 replicate plates containing the appropriate drug treatment and allowed to grow to adulthood at 20° C. Plates were imaged at the same time each day using the WormLab system (MBF Bioscience). Worm area was measured using the WormLab software. Animal sizes of each treatment were compared to sizes of untreated N2 control animals, as well as untreated animals of the same genotype on each day using ANOVA, followed by post-hoc t-tests corrected for multiple comparisons using the Benjamini-Hochberg correction procedure. Analyses were performed and plotted using custom R code.
(§4) To study the effects of the different drugs on growth, the size (body area) of animals treated with each concentration of each drug was compared to the size (body area) of untreated animals of the same genotype on the same day.

For assay [2], the system named is GMPPA KO (GMPPA Human / Y47DA9.1 C. elegans knockout). Kind of assay: C. elegans model growth assay (worm body area), GMPPA KO line. As to the method:
as §1, §2, §3, §4

The subject of assay [3] is R318W PM 2 (R318W Human / R298W C. elegans point mutation). Kind of assay: C. elegans model growth assay (worm body area), R318W PM 2 line. As for the experimental part:
as §1, §2, §3, §4

Assay [4] relates to T292P PM 1 (T292P Human / S272P C. elegans point mutation). In words: C. elegans model growth assay (worm body area), T292P PM 1 line. As for the experimental part:
as §1, §2
as §3, with “code. […]” for “code.”

The subject of assay [5] is T292P PM 2 (T292P Human / S272P C. elegans point mutation). In words: C. elegans model growth assay (worm body area), T292P PM 2 line. The conditions noted are these: 200 nM, Young Adult. As for the experimental part: as §1, §2
To assess the effect of Compounds 1-6 on mitigating the growth deficit of C. elegans carrying a mutation in the GMPPA gene, the growth of the five mutant GMPPA C. elegans lines that were either untreated or treated with one of 6 different drugs (Compounds 1-6), at different concentrations, was measured. C. elegans were allowed to develop to the LI larval stage in the liquid solution. LI C. elegans were then placed onto plates seeded with inactivated OP50 containing the appropriate drug treatment in 0.1% DMSO, and were kept at 20° C. throughout the assay. […] Worm area was measured using the WormLab software. […]

The mark [6] stands for this setting: 20 μM (as printed, second 20 μM group, last in table), Adult (day 5).
Where [7] appears, read: 20 μM (as printed, second 20 μM group, last in table), Young Adult.
The mark [8] stands for this setting: 200 μM (third concentration group), Adult (day 5).
Where [9] appears, read: 200 μM (third concentration group), Young Adult.
Where [10] appears, read: 200 μM (third concentration group), Adult (day 4).

SMILES strings stand for the structures.

In the case of `CC(C)(C)NC(=O)[C@H]1CC[C@H]2[C@@H]3CC[C@H]4NC(=O)C=C[C@]4(C)[C@H]3CC[C@]12C` [Compound 1, finasteride], the “% Increase size (compared to untreated)” value is on record as 8.79% in assay [1] (20 nM, Adult (day 5)); 12.77% in assay [1] (20 nM, L3); 11.59% in assay [1] (20 nM, Young Adult); 7.28% in assay [1] (200 nM, Adult (day 5)); 13.73% in assay [1] (200 nM, L3); 16.92% in assay [1] (200 nM, Young Adult). The “% Increase size (compared to untreated)” value in assay [1] (2 μM, Adult (day 5)) is 9.08%; in assay [1] (2 μM, Young Adult), 12.70%; in assay [1] (20 μM, L3), 10.73%; in assay [2] (2 μM, Adult (day 4)), 6.47%.

`CC(O)(CS(=O)(=O)c1ccc(F)cc1)C(=O)Nc1ccc(C#N)c(C(F)(F)F)c1` (centres unmarked) [Compound 2, N-(4-cyano-3-(trifluoromethyl)phenyl)-3-((4-fluorophenyl)sulfonyl)-2-hydroxy-2-methylpropanamide]: the “% Increase size (compared to untreated)” value in assay [3] (2 μM, Adult (day 5)) turned out to be 9.82%; in assay [3] (2 μM, Young Adult) it was 20.08%; in assay [1] (2 μM, Adult (day 5)) it was 13.14%; in assay [1] (2 μM, Young Adult) it was 15.14%; in assay [1] (setting [6]), 12.37%; in assay [1] (setting [7]), 9.40%. The “% Increase size (compared to untreated)” value is on record as 6.98% in assay [1] (20 μM, Adult (day 5)); 13.42% in assay [1] (setting [8]); 15.18% in assay [1] (setting [9]); 16.12% in assay [4] (setting [9]); 9.60% in assay [2] (20 μM, Adult (day 4)); 10.83% in assay [2] (setting [10]).

As for `CCn1cc(C(=O)O)c(=O)c2cnc(N3CCNCC3)nc21` [Compound 3, 8-Ethyl-5,8-dihydro-5-oxo-2-(1-piperazinyl)pyrido (2,3-d)pyrimidine-6-carboxylic acid], the “% Increase size (compared to untreated)” value is 11.20% in assay [3] (2 μM, Adult (day 4)); 5.57% in assay [3] (20 μM, Adult (day 5)); 11.65% in assay [3] (20 μM, L3); 14.52% in assay [3] (20 μM, Young Adult); 8.02% in assay [3] (200 μM, Adult (day 4)); 5.96% in assay [3] (200 μM, Adult (day 5)). For the same molecule, the “% Increase size (compared to untreated)” value is recorded as 8.12% in assay [1] (2 μM, Adult (day 5)); 18.05% in assay [1] (2 μM, Young Adult); 12.27% in assay [1] (setting [6]); 15.84% in assay [1] (setting [7]); 12.83% in assay [1] (20 μM, Adult (day 5)); 14.96% in assay [1] (20 μM, L3). The “% Increase size (compared to untreated)” value in assay [1] (20 μM, Young Adult) was 9.03%; in assay [1] (setting [8]) it was 10.51%; in assay [1] (setting [9]), 14.43%; in assay [4] (2 μM, Adult (day 5)), 14.96%; in assay [2] (2 μM, Adult (day 4)), 12.37%; in assay [2] (2 μM, Young Adult), 12.64%. Moreover, the “% Increase size (compared to untreated)” value in assay [2] (setting [10]) came to 7.92%.

With `Cc1nc2n(c(=O)c1CCN1CCC(c3noc4cc(F)ccc34)CC1)CCCC2O` (centres unmarked) [Compound 4, 3-(2-(4-(6-fluorobenzo[d]isoxazol-3-yl)piperidin-1-yl)ethyl)-9-hydroxy-2-methyl-6,7,8,9-tetrahydro-4H-pyrido[1,2-a]pyrimidin-4-one], the “% Increase size (compared to untreated)” value in assay [3] (200 nM, Adult (day 4)) amounted to 8.35%; in assay [3] (2 μM, Adult (day 5)), 6.08%; in assay [1] (20 nM, Adult (day 5)), 10.32%; in assay [1] (20 nM, Young Adult) it was 11.38%; in assay [1] (200 nM, Adult (day 5)), 11.03%; in assay [1] (2 μM, Adult (day 5)), 9.47%. In addition, the “% Increase size (compared to untreated)” value came out at 14.09% in assay [1] (2 μM, Young Adult); 10.72% in assay [1] (20 μM, Adult (day 5)); 6.70% in assay [4] (20 μM, Adult (day 5)); 7.18% in assay [2] (20 nM, Adult (day 4)); 6.86% in assay [2] (2 μM, Adult (day 4)).

Take `C[C@H](NCc1ccc(OCc2cccc(F)c2)cc1)C(N)=O` [Compound 5, (S)-2-((4-((3-fluorobenzyl)oxy)benzyl)amino) propanamide]: the “% Increase size (compared to untreated)” value is 5.51% in assay [3] (2 μM, Adult (day 5)); 11.09% in assay [1] (20 nM, Adult (day 5)); 9.35% in assay [1] (200 nM, Adult (day 5)); 9.47% in assay [1] (2 μM, Adult (day 5)); 16.41% in assay [1] (2 μM, L3); 16.21% in assay [1] (2 μM, Young Adult).

Consider `Cc1ccc2c([nH]c(=O)c3c(=O)cc(C(=O)OCCC(C)C)oc32)c1C` [Compound 6, 3-methylbutyl 7,8-dimethyl-4,5-dioxo-6H-pyrano[3,2-c]quinoline-2-carboxylate], for which the “% Increase size (compared to untreated)” value in assay [3] (20 nM, Young Adult) is on record as 20.62%; in assay [3] (200 nM, Adult (day 4)), 7.96%; in assay [3] (200 nM, Young Adult) it was 25.23%; in assay [3] (2 μM, Adult (day 4)) it was 8.97%; in assay [3] (2 μM, Young Adult), 18.25%; in assay [3] (20 μM, Young Adult) it was 22.20%. The “% Increase size (compared to untreated)” value in assay [5] is listed as 13.63%; in assay [1] (20 nM, Adult (day 5)), 11.15%; in assay [1] (20 nM, L3) it was 18.59%; in assay [1] (20 nM, Young Adult), 27.26%; in assay [1] (200 nM, Adult (day 5)) it was 12.15%; in assay [1] (200 nM, Young Adult) it was 18.38%. Further, the “% Increase size (compared to untreated)” value in assay [1] (2 μM, Adult (day 5)) was 7.41%; in assay [1] (2 μM, Young Adult) it was 16.84%; in assay [1] (20 μM, Adult (day 5)), 10.80%; in assay [1] (20 μM, L3), 13.93%; in assay [1] (20 μM, Young Adult) it was 18.41%; in assay [2] (2 μM, Adult (day 4)), 6.58%. Also, the “% Increase size (compared to untreated)” value in assay [2] (20 μM, Young Adult) came out at 13.22%.
